Values quoted from earlier work, collected in patent US20080063781A1, “Globin Digest Containing, Yeast-Fermented Beverages” (Suntory Limited, priority 2004, published 2008).

System: serum triglyceride levels
Conditions: reported in JP 9-255698 A

Substance	suppressive activity against the elevation of serum triglyceride levels
Val-Val-Tyr-Pro (VVYP; printed: Val-Val-Tyr-Pro)	strong suppressive activity against the elevation of serum triglyceride levels
Val-Thr-Leu [VTL]	strong suppressive activity against the elevation of serum triglyceride levels
